Source: PubChem BioAssay (NCI)
Where “and” joins values, the source holds several entries; their conditions need not be identical. Equal values may be shown once.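 Growth conditions: 96-well plates. Treatment: test compound, 48 hours, 5 concentrations. Analysis: linear interpolation between bracketing concentrations; unreached endpoints set to highest concentration. GI50 marks 50% less growth. TGI: total growth inhibition.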

Columns and labels:
Assay in all cases: NCI tumour cell line growth inhibition, 48 h
T-47D breast = system: T-47D breast
NCI-H522 lung = system: NCI-H522 lung
TK-10 renal = system: TK-10 renal
U251 CNS = system: U251 CNS
HT29 colon = system: HT29 colon
NCI-H460 lung = system: NCI-H460 lung
SK-MEL-2 melanoma = system: SK-MEL-2 melanoma
K-562 leukemia = system: K-562 leukemia
A549 NSCLC = system: A549 NSCLC
SF-539 CNS = system: SF-539 CNS

| SMILES | TGI (T-47D breast) [µM] | TGI (NCI-H522 lung) | TGI (TK-10 renal) [µM] | TGI (U251 CNS) [µM] | TGI (HT29 colon) | TGI (NCI-H460 lung) [µM] | TGI (SK-MEL-2 melanoma) [µM] | TGI (K-562 leukemia) [µM] | TGI (A549 NSCLC) [µM] | TGI (SF-539 CNS) [µM] | GI50 (T-47D breast) [µM] | GI50 (NCI-H522 lung) [µM] | GI50 (TK-10 renal) [µM] | GI50 (U251 CNS) [µM] | GI50 (SK-MEL-2 melanoma) [µM] | GI50 (SF-539 CNS) [µM] | GI50 (A549 NSCLC) [µM] | GI50 (HT29 colon) [µM] | GI50 (NCI-H460 lung) [µM] | GI50 (K-562 leukemia) [µM] |
| --- | --- | --- | --- | --- | --- | --- | --- | --- | --- | --- | --- | --- | --- | --- | --- | --- | --- | --- | --- | --- |
| O=C1NC(=O)C2(CCC(O)C2)c2cc[n+]([O-])cc21 (stereo not drawn) | > 100 | > 100 µM | > 100 | > 100 | > 100 µM | > 100 | > 100 | > 100 | > 100 | > 100 | – | – | – | – | – | – | – | – | – | – |
| O=C(N/C(=C\c1ccc(Br)cc1)c1nc2ccccc2s1)c1ccccc1 | – | > 100 µM | > 100 | > 100 | > 100 µM | > 100 | > 100 | > 100 | > 100 | > 100 | – | – | – | – | – | – | – | – | – | – |
| COc1ccc(NC(=O)Nc2ccc(Nc3nc(C)cc(Nc4ccc(C)cc4)n3)cc2)cc1 | 4.24 | 4.42 µM | 3.06 | 3.21 | – | – | 3.57 | – | – | 3.31 | 1.78 | 1.93 | 1.68 | 1.72 | 1.85 | 1.7 | – | – | – | – |
| Cc1ccc(S(=O)(=O)NC(CCC(=O)Nc2ccccc2)C(=O)Nc2ccccc2)cc1 (stereo not drawn) | 0.934 | 1.14 µM | – | 1.49 | – | – | 1.47 | – | 1.76 | 0.89 | 0.206 | 0.276 | – | 0.326 | 0.427 | 0.283 | 0.319 | – | – | – |
| COc1cc(-c2nn(C(=O)NS(=O)(=O)c3ccc(C)cc3)cc2-c2ccncc2)ccc1Cl | 31.2 | 26.7 µM | 19.8 | 28.5 | 17.6 µM | 38.5 | 15.4 | – | 35 | 14.7 | 6.34 | 10.4 | 4.9 | 6.16 | 4.65 | 3.61 | 4.43 | 2.89 | 13.3 | – |
| COc1ccc2[nH]c(-c3cccc(N(C)C)c3)cc(=O)c2c1 | – | 0.526 µM and 2.56 µM | > 100 | – | 1.46 µM and 3.21 µM | > 100 | – | 17.3 | > 100 | – | – | 0.407 | 19.8 | 0.463 | 0.786 | 0.391 | 4.46 | 0.345 | 0.564 | 0.321 |
| CN(C)c1nc(N(C)C)n2nc(-c3ccccc3[N+](=O)[O-])nc2n1 | – | > 100 µM | > 100 | > 100 | > 100 µM | > 100 | > 100 | > 100 | > 100 | > 100 | – | – | – | – | – | – | – | – | – | – |
| CC1CCCN(CC(O)CN2CCCc3ccccc32)C1 (stereo not drawn) | > 100 | > 100 µM | > 100 | > 100 | > 100 µM | – | > 100 | > 100 | > 100 | – | – | – | – | – | – | – | – | – | – | – |
| COc1cc(-c2nc(SCC(=O)Nc3ccc(C(C)=O)cc3)[nH]c(=O)c2C#N)cc(OC)c1OC | > 100 | – | > 100 | > 100 | > 100 µM | > 100 | – | > 100 | > 100 | > 100 | 34 | – | 96.9 | 55.6 | – | 29.6 | > 100 | 55.7 | 39.1 | 37.7 |
| CCc1ccc(/C(C)=N/NC(N)=S)cc1 | – | – | > 100 | > 100 | > 100 µM | – | > 100 | > 100 | > 100 | > 100 | – | – | – | – | – | – | – | – | – | – |
| NC1=NC2(O)c3ccccc3C(=O)C2(O)N1 (stereo not drawn) | – | > 100 µM | > 100 | > 100 | > 100 µM | > 100 | > 100 | > 100 | > 100 | > 100 | – | – | – | – | – | – | – | – | – | – |
| O=C(CCc1ccccc1)On1nnc2ccccc2c1=O | – | > 100 µM | 96.2 | > 100 | > 100 µM | > 100 | > 100 | > 100 | > 100 | > 100 | – | – | – | – | – | – | – | – | – | – |
| O=C(CCCNC(=O)OCc1ccccc1)OCc1ccc2c(c1)C(=O)c1ccccc1C2=O | – | > 100 µM | > 100 | > 100 | > 100 µM | > 100 | > 100 | > 100 | > 100 | 57.8 | – | – | – | – | – | – | – | – | – | – |
| COc1ccc(CCNCc2cccc(OC)c2OC)cc1OC | – | > 100 µM | > 100 | – | > 100 µM | > 100 | > 100 | > 100 | > 100 | – | – | – | – | – | – | – | – | – | – | – |
| Cc1[nH]nc2c1N=C(c1ccccc1F)c1cc(C#N)ccc1N2 | > 15.2 | 11.1 µM | 8.73 | 4.64 | 7.41 µM | 15.6 | 8.81 | > 25 | – | 4.93 | 1.36 | 3.72 | 1.91 | 0.215 | 2.39 | 0.134 | – | 0.118 | 0.106 | 0.11 |
| C#CCOc1ccc2ncnc(Nc3ccc(NC(=O)CCl)cc3)c2c1 | 31.9 | 4.27 µM | 42.7 | 5.99 | 16 µM | 30.1 | 57.3 | – | 39.7 | 10.6 | 8.4 | 2 | 13.7 | 2.08 | 12.6 | 2.89 | 13.4 | 4.22 | 10.6 | – |
| COc1ccc(/C(Cl)=C(\C=O)c2ccc(OC)c(OC)c2)cc1OC | – | > 100 µM | > 100 | > 100 | > 67.9 µM | > 100 | > 100 | > 100 | > 100 | > 100 | – | – | – | – | – | – | – | – | – | – |
| COc1ccc(/C=C/c2nc(=S)[nH][nH]2)cc1 | – | > 100 µM | > 100 | > 100 | > 100 µM | > 100 | > 100 | > 100 | > 100 | > 100 | – | – | – | – | – | – | – | – | – | – |
| O=C(N=Nc1c(O)[nH]c2c(Cl)cc(Cl)cc12)c1ccncc1 | – | – | > 100 | 41.6 | 75.7 µM | > 100 | 40.2 | 99.5 | > 100 | 51.1 | – | – | – | – | – | – | – | – | – | – |
| Cc1cccc2c1Oc1cc(Cl)ccc1C2NC(=O)CN(C)C (stereo not drawn) | – | – | > 100 | – | > 100 µM | > 100 | – | > 100 | > 100 | > 100 | – | – | – | – | – | – | – | – | – | – |
